What was measured:
[1] = Liver microsomal stability in vitro, rat; format: in vitro ADME; settings: pH 7.4; rat liver microsomes 0.5 mg protein/mL, 1 μM test compound, 37° C.; read-out: Rat T1/2
Procedure: (§1) Evaluation of in vitro liver microsomal stability of the compound of the present disclosure was tested by the following method:
(§2) Buffer: 100 mM potassium phosphate buffer, pH 7.4; […] MgCl2.
(§3) Liver microsomes: human liver microsomes, Corning Cat No. 452117; Rat liver microsomes, Xenotech Cat No. R1000; Mouse liver microsomes, Xenotech Cat No. M1000; Dog liver microsomes, Xenotech Cat No. D1000; Liver microsomes of cynomolgus monkey, Corning Cat No. 452413, the final concentration was 0.5 mg protein/mL.
(§4) 1. Intermediate solution: 5 μL of compound or control in stock solution (10 mM) was diluted with 495 μL of methanol (concentration: 100 μM, 99% MeOH).
(§5) 2. Operating solution: the intermediate solution was diluted […] with 450 μL 100 mM potassium phosphate buffer (concentration: 10 μM, 9.9% MeOH).
(§6) 1. 10 μL of compound or control solution per well was added to all plates (T0, T5, T10, T20, T30, T60, NCF60) except matrix blank.
(§7) 2. Microsome solution was distributed to 96-well plates according to platemap for standby, 680 μL per well, and the mixture of microsome solution and the compound was incubated at 37° C. for about 10 minutes.
4. […]
(§8) 10. Data analysis: The peak area of the corresponding compound and internal standard was detected by LC-MS/MS, and the T1/2 of the compound was calculated by the following formula: […]

[2] = Liver microsomal stability in vitro, dog; format: in vitro ADME; settings: for half-life at 1 μM: pH 7.4, dog liver microsomes 0.5 mg protein/mL, 1 μM test compound, 37° C., read-out: Dog T1/2
Procedure: as §1, §2, §3, §4, §5, §6, §7
4. After preheating, NADPH regeneration system was distributed to 96-well plate, 90 μL per well, for standby according to plate map, which was added to each plate to start the reaction, 10 μL per well. The final concentration of each component in the incubation medium includes: 0.5 mg protein/mL microsome, 1 μM test compound, […], 0.99% methanol and 0.01% DMSO.
6. The above-prepared stop solution (4° C. cooling) was added to stop the reaction, 300 μL per well.
9. During centrifugation, eight new 96-well plates were loaded with 300 μL of HPLC water, and then 100 μL of supernatant was transferred for mixing, followed by LC/MS/MS detection.
as §8

MDA-MB-436 cells = assay: Pharmacodynamic study on mouse MDA-MB-436 model; format: in vivo, BALB/c nude mice; settings: for T/C / TGI / Tumor volume (day 39) / Tumor volume (day 0): MDA-MB-436 in nude mice; for T/C / TGI / Tumor volume (day 39) / rate of test animals in which the tumor completely disappeared: 50 mg/kg PO x 18 days; for T/C / TGI / Tumor volume (day 39): day 39; for Tumor volume (day 0): day 0, before dosing; for rate of test animals in which the tumor completely disappeared: observed until the 39th day; for inhibitory effect on the tumor growth, in words: 50 mg/kg, continuous PO administration for 18 days
Procedure: BALB/c nude mice, aged 6-8 weeks old, weighing 18-22 g, female, provided by Shanghai Lab Animal Research Center (Shanghai Xipuer-Beikai) with the animal certificate no: 20130016001914.
Human breast cancer MDA-MB-436 cells (ATCC, Manacas, Va., Article number (Art. No.): ATCC-HTB-130) were cultured in vitro in monolayer under the conditions of RPMI1640 medium with 10% fetal bovine serum and 37° C. 5% CO2 incubator. The passage was routinely digested with trypsin-EDTA twice a week. When the cell saturation was up to 80%-90% and reached the requirement, the cells were collected, counted and inoculated. 0.2 mL (1×10^7) MDA-MB-436 cells (added with matrix gel, volume ratio 1:1) were subcutaneously inoculated into the right back of each mouse, and mice were randomly grouped and dosed when the average tumor volume reached 157 mm^3.
2.5 g of methylcellulose was slowly added into 80 mL of deionized water in a suitable container under stirring, stirred until uniform, 10 mL of Tween 80 was added to the solution, stirred until uniform, continued to add deionized water to 500 mL, and stirred until uniform to obtain a vehicle solution. Then an appropriate amount of p-toluenesulfonate of example 23 was weighed, and an appropriate amount of the above vehicle solution was added and vortexed until uniform.
The subcutaneous tumor volumes of nude mice were measured 2-3 times a week, and the mice were weighed, and the data were recorded.
Experimental evaluation index: tumor growth inhibition rate TGI (%) or relative tumor proliferation rate T/C (%) was used for evaluation, wherein T was the experimental group, and C was the control group.
Calculation of relative tumor proliferation rate: If T>T0, T/C (%)=(T−T0)/(C−C0)×100%, if T<T0, T/C (%)=(T−T0)/T0×100%, wherein T and C were tumor volumes at the end of the experiment; T0 and C0 were tumor volumes at the beginning of the experiment.

Row | metabolic stability in dog liver microsomes, in words ([2]; dog liver microsomes) | SMILES | half-life at 1 μM [1] [min] | half-life at 1 μM [2] [min] | T/C (MDA-MB-436 cells) [%] | TGI (MDA-MB-436 cells) [%] | Tumor volume (day 39) (MDA-MB-436 cells) [mm^3] | Tumor volume (day 0) (MDA-MB-436 cells) [mm^3] | anti-tumor activity compared with positive control Niraparib, in words (MDA-MB-436 cells; nude mouse MDA-MB-436 model, 50 mg/kg PO for 18 days) | rate of test animals in which the tumor completely disappeared (MDA-MB-436 cells; nude mouse MDA-MB-436 model) | inhibitory effect on the tumor growth, in words (MDA-MB-436 cells; nude mouse MDA-MB-436 model)
1 | excellent metabolic stability | NC(=O)c1cccc2cn(-c3ccc([C@]4(F)CCCNC4)cc3)nc12 (single isomer, unassigned) [Example 23, (R or S)-2-(4-(3-fluoropiperidin-3-yl)phenyl)-2H-indazole-7-carboxamide] | 64.2 | 20.3 | −68 | 168 | 49 | 157 | stronger | 50% | very strong inhibitory effect
2 | – | NC(=O)c1cccc2cn(-c3ccc([C@@H]4CCCNC4)cc3)nc12 [Niraparib, reference compound] | 106 | 22.6 | 1.5 | 98.5 | 187 | 157 | – | zero | very strong inhibitory effect
